Here are results for seven compounds from patent US9937262B2 (priority 2013, dated 2018).

The structures appear in SMILES notation. In brackets after ≈: the same amount, converted by molar mass. Like-named read-outs stand apart in the source and are kept apart here.

For series [1] the following is noted: human.
Experimental: At 37±0.5° C., the hydrolysis rate of the prodrugs was measured in 80% human plasma. An appropriate aliquot (20-100 μL) of 1 mg/ml prodrug solution in methanol was transferred to 5.0 ml of preheated plasma. At appropriate time intervals, 300 μl sample aliquots were withdrawn and transferred to 600 μl acetonitrile and mixed thoroughly. After centrifugation at 13500 rpm for 5 min, the supernatant was analyzed by HPLC for parent drug and remaining prodrug.
The nature of series [2]: Stability (cleavage to parent drug) of prodrug suspensions in PBS pH 7.4. The format is physicochemical. The settings on record: for estimated pseudo first-order rate constant (khyd) for cleavage: PBS pH 7.4, 37° C., calculated from k0 and Sprodrug; for apparent pseudo-zero-order rate constant (k0): appearance of parent drug from suspension in PBS pH 7.4, 37° C.
Experimental: Suspensions of the prodrugs in 67 mM phosphate buffer pH 7.4 (PBS) were prepared by adding 10 mL PBS to approximately 5 mg prodrug. The suspensions were kept unstirred at 37° C. in an incubator hood. At appropriate time intervals over 23 days, about 500 μL samples were taken and after filtration (disposable syringe filters), the solutions were analyzed immediately by HPLC for parent drug and remaining prodrug. Quantitation of parent drug and prodrug was done from peak area measurements in relations to those of standards analysed by HPLC at the same conditions. […] Reversed phase chromatography was performed using a C18 Gemini® RP column (150×4.6 mm, 5 μm particles) (Phenomenex, Torrance, Calif., USA) equipped with a SecurityGuard precolumn (Phenomenex, Torrance, Calif., USA). The flow rate was set at 1 mL/min and the column effluent was monitored at 230 nm. The mobile phase consisted of 35% (v/v) acetonitrile and 65% (v/v) of 0.1% (v/v) phosphoric acid pH 3.2. The retention times varied in the range of 3 to 30 min.
From the observed relatively stable concentration of dissolved prodrugs measured in the suspensions after 8-9 day up to 23 days, the solubilities of the prodrugs (Sprodrug) were determined. In this time interval, the rate of appearance of parent drug was determined and an apparent pseudo-zero-order rate constant (k0) was obtained. By assuming that the dissolution rates were much faster than the conversion of the prodrugs to the parent drug, pseudo first-order rate constants (khyd) for cleavage of the prodrugs were calculated according to:
Series [3] can be described thus: Solubility of DPX-2-0006 at pH 3 in the presence of N,N-dimethyl acetamide (DMA). To be noted: aqueous with cosolvent or surfactant or cyclodextrin, thermodynamic from solid, acidic suspension (pH 3), 37° C. It is filed as physicochemical. On the procedure: A suspension of DPX-2-0006 was formed by adding 10 mg to 3 mL demineralized water, 0.05 mL 0.100 M HCl was added to obtain a pH of 3. After rotation of the suspension at 37° C. for 1 days, 0.5 mL sample was taken and after filtration (disposable syringe filters), the solution was diluted in methanol:water 1:1 and analyzed immediately by HPLC for prodrug. […] The HPLC method described in Example 29 was applied and the retention time of DPX-2-0006 was 14 min, respectively. N,N-dimethylacetamide (DMA) was added stepwise to the acidic suspension of DPX-2-0006 and the amount of DPX-2-0006 dissolved in the presence of various volumes of DMA was determined after 1-3 days rotation at 37° C. as described above.

A short description of series [4]: Solubility of the prodrugs in PBS (67 mM phosphate buffer pH 7.4) at 37° C. The format is physicochemical. The settings on record: 67 mM phosphate buffer pH 7.4 (PBS), aqueous buffer, thermodynamic from solid, read-out: Sprodrug ± SD.
Experimental: The determination of the solubility of a prodrug at different pH values of interest according to the present invention is carried by adding excess solid prodrug to a container containing a buffer solution with well-defined pH. The mixture is rotated at constant temperature until an equilibrium between solid prodrug and prodrug in solution has established (that is until the prodrug concentration in the supernatant remains constant). At each measurement the pH of the supernatant is controlled and eventually adjusted to the desired pH.
Suspensions of the prodrugs in 67 mM phosphate buffer pH 7.4 (PBS) were prepared by adding 10 mL PBS to approximately 5 mg prodrug. The suspensions were kept unstirred at 37° C. in an incubator hood. At appropriate time intervals over 23 days, about 500 μL samples were taken and after filtration (disposable syringe filters), the solutions were analyzed immediately by HPLC for parent drug and remaining prodrug. Quantitation of parent drug and prodrug was done from peak area measurements in relations to those of standards analysed by HPLC at the same conditions. […] The flow rate was set at 1 mL/min and the column effluent was monitored at 230 nm. […]
From the observed relatively stable concentration of dissolved prodrugs measured in the suspensions after 8-9 day up to 23 days, the solubilities of the prodrugs (Sprodrug) were determined. […]
Series [5] in a line: Precipitation on addition of acidic prodrug solution to 67 mM phosphate buffer pH 7.4. The format is physicochemical. To be noted: 1.0 mL concentrated aqueous solution pH 3.4 added to 1.0 mL 67 mM phosphate buffer pH 7.4. On the procedure:
The pH in the suspension was measured to 7.0.

As to `COc1ccc2cc(C(C)C(=O)OCCn3ccnc3)ccc2c1` (stereo not shown), in series [1], the “t1/2 in plasma (hydrolysis)” value came out at 1.07 h.

Turning to `O=C(Cc1ccccc1Nc1c(Cl)cccc1Cl)OCCc1ccccn1` [DPX-1-0004, 2-(pyridin-2-yl)ethyl 2-(2-((2,6-dichlorophenyl)amino)phenyl)acetate], in series [2], the “estimated pseudo first-order rate constant (khyd) for cleavage” value was 0.15 day⁻¹ and the “apparent pseudo-zero-order rate constant (k0)” value worked out at 1.1e-06 M/day.

`O=C(Cc1ccccc1Nc1c(Cl)cccc1Cl)OCCn1cnc2ccccc21` [DPX-1-0006, 2-(1H-benzo[d]imidazol-1-yl)ethyl 2-(2-((2,6-dichlorophenyl)amino)phenyl)acetate]: in series [2], the “estimated pseudo first-order rate constant (khyd) for cleavage” value is 0.17 day⁻¹ and the “apparent pseudo-zero-order rate constant (k0)” value worked out at 2.4e-06 M/day.

For the compound `O=C(Cc1ccccc1Nc1c(Cl)cccc1Cl)OCCn1ccnc1-c1ccccc1` [DPX-1-0007, 2-(2-phenyl-1H-imidazol-1-yl)ethyl 2-(2-((2,6-dichlorophenyl)amino)phenyl)acetate], in series [2], the “estimated pseudo first-order rate constant (khyd) for cleavage” value was 0.0029 day⁻¹ and the “apparent pseudo-zero-order rate constant (k0)” value was 2.5e-07 M/day.

For `COc1ccc2cc(C(C)C(=O)OCCc3ccccn3)ccc2c1` (stereo not shown) [DPX-2-0004, 2-(pyridin-2-yl)ethyl 2-(6-methoxynaphthalen-2-yl)propanoate], in series [2], the “estimated pseudo first-order rate constant (khyd) for cleavage” value is 0.033 day⁻¹ and the “apparent pseudo-zero-order rate constant (k0)” value was 1.7e-06 M/day.

As for `COc1ccc2cc(C(C)C(=O)OCCn3cnc4ccccc43)ccc2c1` (stereo not shown) [DPX-2-0006, 2-(1H-benzo[d]imidazol-1-yl)ethyl 2-(6-methoxynaphthalen-2-yl)propanoate], the solubility in series [3] (acidified demineralized water with 5% (v/v) DMA, 5% (v/v) DMA, read-out: solubility in the presence of 5% (v/v) DMA) is 250 µg/mL; in series [3] (acidified demineralized water with 15% (v/v) DMA, 15% (v/v) DMA, read-out: solubility in the presence of 15% (v/v) DMA), 350 µg/mL; in series [3] (acidified demineralized water with 30% (v/v) DMA, 30% (v/v) DMA, read-out: solubility in the presence of 30% (v/v) DMA), 570 µg/mL; in series [3] (acidified demineralized water with 50% (v/v) DMA, 50% (v/v) DMA, read-out: solubility in the presence of 50% (v/v) DMA) it was 2250 µg/mL. For the same compound, the solubility thermodynamic in series [4] was found to be 5 ± 1 µg/mL (≈ 13.4 µM). The “estimated pseudo first-order rate constant (khyd) for cleavage” value in series [2] is 0.066 day⁻¹. In series [2], the “apparent pseudo-zero-order rate constant (k0)” value worked out at 1e-06 M/day.

Consider `COc1ccc2cc(C(C)C(=O)OCCn3ccnc3-c3ccccc3)ccc2c1` (stereo not shown) [DPX-2-0007, 2-(2-phenyl-1H-imidazol-1-yl)ethyl 2-(6-methoxynaphthalen-2-yl)propanoate], for which the “precipitation on mixing with buffer pH 7.4” value in series [5] is given as “a precipitation was immediately observed”. In series [2], the “estimated pseudo first-order rate constant (khyd) for cleavage” value is 0.065 day⁻¹ and the “apparent pseudo-zero-order rate constant (k0)” value was determined as 1e-06 M/day.
